In patent US12201626B2, “Bifunctional compositions for the treatment of cancer” (ARMACEUTICA, INC., priority 2018, dated 2025):
Entries after “also recorded” stand apart in the source; their conditions may differ.

Tests used:
topoisomerase II = biological target: T1, topoisomerase II (Homo sapiens, UniProt P11388); assay: TopoGen Topoisomerase II Assay Kit (kDNA decatenation); assay type: biochemical; details: kDNA plus topoisomerase II; 5, 50, 500 μM PND
T1 construct: purchased TopoGen
Description: FIG. 3. Transcriptome analyses of possible pathways activated by pyronaridine (PND) and target validation. […] Pearson correlation analysis of the transcriptional signature of PND compared to the signatures deposited in LINCS project. Compounds marked correlate with the effects of PND, wherein darker the fill, the better the correlation. […] Lane 1, catenated kinetoplast DNA (kDNA); Lane 2, decatenated kDNA; Lane 3, linear kDNA; Lane 4, kDNA plus topoisomerase II; Lane 5, kDNA plus topoisomerase plus 5 μM of PND; Lane 6, kDNA plus topoisomerase plus 50 μM of PND; Lane 7, kDNA plus topoisomerase plus 500 μM of PND; Lane 8, kDNA plus topoisomerase II plus 1 mM etoposoide (Topo II inhibitor); Lane 9, kDNA plus topoisomerase ii plus PBS; 10, kDNA plus topoisomerase II plus DMSO.
In order to explore the possible Mechanism of Action (MoA) of PND, the transcriptome results for each cell line obtained were compared with the gene-expression data from the LINCS project (http://www.lincsproject.org), that contains the gene-expression profiles from various human cells treated with FDA-approved and withdrawn compounds as well as different well-characterized chemical reagents. It was reasoned that the expression profile of each lead compound should also induce a cellular gene expression response consistent with a known MoA of drugs deposited in LINCS. […]

MDA-MB-231 cells = assay: Cell cycle profile and DNA fragmentation, DAPI flow cytometry; assay type: cell-based, human; details: 72 h
Description: (§1) Asynchronous cultures in the exponential growth phase of MDA-MB-231 and HL-60 cells in 24-well plates were treated with several doses of PND. After 72 h of incubation, cells were centrifuged and treated as in the previous section, fixed, permeabilized and stained with a DNA intercalating fluorophore, 4,6-Diamidino-2-phenylindole (DAPI); those three steps were accomplished by adding to the cells 200 μl of a single nuclear isolation medium (NIM)-DAPI solution (Beckman Coulter). The cell suspension was then incubated for an additional 3 min at room temperature in the dark. The controls included in the series of experiments were similar to those described for the above experiments. Approximately, 20,000 events/cells were collected per sample by using a flow cytometer equipped with a solid state 405 nm laser (Gallios; Beckman Coulter). The acquisition and distribution of cell subpopulations within each cell cycle facets were accomplished by utilizing Kaluza flow cytometry software (Beckman Coulter). Additionally, doublets were effectively eliminated by including a single cells gate in the acquisition cell cycle protocol.

HL-60 cells = assay: as above; assay type: cell-based, human; details: 72 h
Description: as §1

[1] = system: plasmid dsDNA (pCMV-dR8.91); assay: DNA mobility-shift assay (agarose gel); assay type: binding; parameters: DNA mobility shift: unit of the concentration uncertain; details: for DNA mobility shift: 100 ng plasmid DNA
Description: Typically, an experimental compound intercalating or binding to double stranded (ds) DNA will increase the molecular mass resulting from forming complexes, decreasing its electrophoretic mobility in an agarose gel, as compared with untreated dsDNA. To explore the potential interaction between PND and dsDNA, a DNA mobility-shift assay was conducted. Each reaction mixture was of 10 μl total volume in PBS pH 7.4. Both PND (Sigma-Aldrich) and quinacrine (Sigma-Aldrich) were tested with three individual concentrations of 1 μM, 0.5 μM or 0.25 μM, respectively. To each reaction mixture, 100 ng of plasmid dsDNA (pCMV-dR8.91; Addgene, Cambridge, MA) was added and the mixture was then incubated for 30 min at 37° C. and stopped by adding 2 μl of 6× gel loading buffer and placed on ice. The potential binding interaction between both PND and quinacrine with dsDNA were analyzed by using 1% (w/v) agarose-gel electrophoresis dissolved in TAE buffer (0.04 M Tris base, 0.04 M acetate and 0.001 M EDTA) pH 8.0. To stain the dsDNA complexes, Ethidium bromide was added to the agarose gel throughout the electrophoresis process at a concentration of 0.5 μg/ml. DNA migration was visualized by utilizing a gel documentation system and pictures were captured by using a UV-light transilluminator (Alpha Innotech, San Leandro, CA). The well-known DNA intercalator fluorescent compound, propidium iodide (PI), was included as positive controls at 1 μg per reaction. As a control, untreated plasmid DNA was included to determine its normal electrophoretic mobility in the gel.

Calf Thymus DNA = assay: Circular dichroism spectroscopy; assay type: binding; details: PND/DNA molar ratios 0.03-0.3; 30 min and 20 h
Description: Circular dichroism (CD) spectra measurements were taken in a JASCO-1100 spectropolarimeter equipped with a Xenon lamp (JASCO, Easton, MD). CT DNA and buffers were purchased from Sigma Aldrich. A CT DNA stock solution was prepared in Tris/HCl buffer (5 mM Tris/HCl, 50 mM NaCl, pH=7.39) and its concentration (4.325 mM) was spectrophotometrically determined using molar extinction coefficient 6600 M−1 cm−1 at 260 nm. A 150 μM dilution in Tris/HCl buffer was prepared and used for the experiments. A 2.0 mM stock solution of PND was freshly prepared in MQ water prior to use. The appropriate volume of this solution was added to 3 ml working solutions of 150 μM CT DNA to achieve molar ratios of 0.03, 0.06, 0.2 and 0.3 PND/DNA. Samples were prepared in triplicate and incubated for 30 minutes and 20 hours. All CD spectra of DNA and DNA/PND were recorded at 25° C. over the range 205-380 nm and finally corrected with a blank and noise reduction. The final data is the average of three experiments and it is expressed in millidegrees (mdegs).

[2] = concentration-dependent, P<0.0005

T1 sequence (P11388 whole entry): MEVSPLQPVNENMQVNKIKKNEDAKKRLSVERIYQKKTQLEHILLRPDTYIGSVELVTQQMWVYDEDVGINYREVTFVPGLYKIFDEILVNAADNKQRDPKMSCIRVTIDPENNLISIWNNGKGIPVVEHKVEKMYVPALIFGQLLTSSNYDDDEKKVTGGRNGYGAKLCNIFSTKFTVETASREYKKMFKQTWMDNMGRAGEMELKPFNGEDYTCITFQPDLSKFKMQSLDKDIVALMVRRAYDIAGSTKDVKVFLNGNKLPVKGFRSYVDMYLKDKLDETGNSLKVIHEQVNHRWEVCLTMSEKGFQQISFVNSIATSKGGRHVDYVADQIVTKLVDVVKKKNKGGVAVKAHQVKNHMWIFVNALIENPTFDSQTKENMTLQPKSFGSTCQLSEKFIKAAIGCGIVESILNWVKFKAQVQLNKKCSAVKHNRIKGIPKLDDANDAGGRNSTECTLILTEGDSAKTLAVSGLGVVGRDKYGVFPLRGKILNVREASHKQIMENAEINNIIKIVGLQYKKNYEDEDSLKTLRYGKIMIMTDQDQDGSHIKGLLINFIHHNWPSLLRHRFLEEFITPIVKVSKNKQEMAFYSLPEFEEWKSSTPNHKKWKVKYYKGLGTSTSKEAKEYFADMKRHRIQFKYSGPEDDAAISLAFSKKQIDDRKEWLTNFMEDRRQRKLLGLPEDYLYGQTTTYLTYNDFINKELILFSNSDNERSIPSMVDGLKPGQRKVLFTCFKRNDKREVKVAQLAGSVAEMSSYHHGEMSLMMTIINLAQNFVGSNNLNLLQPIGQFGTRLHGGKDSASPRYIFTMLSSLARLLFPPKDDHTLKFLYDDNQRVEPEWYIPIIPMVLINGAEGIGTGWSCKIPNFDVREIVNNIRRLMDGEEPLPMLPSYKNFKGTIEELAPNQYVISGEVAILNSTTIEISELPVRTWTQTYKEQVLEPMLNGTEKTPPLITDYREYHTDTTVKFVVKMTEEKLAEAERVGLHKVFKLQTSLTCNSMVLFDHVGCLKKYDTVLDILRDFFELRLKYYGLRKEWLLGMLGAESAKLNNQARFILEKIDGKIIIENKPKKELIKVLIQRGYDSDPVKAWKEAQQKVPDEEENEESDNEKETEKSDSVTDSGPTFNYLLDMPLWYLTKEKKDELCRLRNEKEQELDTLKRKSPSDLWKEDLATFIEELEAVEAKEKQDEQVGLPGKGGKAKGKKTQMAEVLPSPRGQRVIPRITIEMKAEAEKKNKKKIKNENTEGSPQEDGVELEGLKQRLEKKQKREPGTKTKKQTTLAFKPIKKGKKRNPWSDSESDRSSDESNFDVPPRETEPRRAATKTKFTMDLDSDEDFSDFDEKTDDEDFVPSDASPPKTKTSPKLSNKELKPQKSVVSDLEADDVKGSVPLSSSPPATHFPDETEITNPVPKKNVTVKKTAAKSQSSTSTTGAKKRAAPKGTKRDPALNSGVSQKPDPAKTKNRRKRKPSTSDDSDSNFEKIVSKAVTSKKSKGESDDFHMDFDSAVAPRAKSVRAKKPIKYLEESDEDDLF

COC1=CC=C2Nc3cc(Cl)ccc3C(N=C3C=C(CN4CCCC4)C(=O)C(CN4CCCC4)=C3)=C2N1 [PND, 4-[(7-chloro-2-methoxy-1,5-dihydrobenzo[b][1,5]naphthyridin-10-yl)imino]-2,6-bis(pyrrolidin-1-ylmethyl)cyclohexa-2,5-dien-1-one]
inhibition of topoisomerase II activity (topoisomerase II): activity of PND as a Topoisomerase inhibitor was confirmed; also recorded: inhibition of the topoisomerase II activity in a dose-dependent manner | G0/G1 cell subpopulation (MDA-MB-231 cells): significant decrease | DNA fragmentation (sub-G0/G1 subpopulation) (MDA-MB-231 cells; [2]): significant increase | S and G2/M subpopulations (MDA-MB-231 cells; vs PBS and untreated controls): decreased | decrease of G0/G1 cell subpopulation (HL-60 cells): not observed | DNA fragmentation (sub-G0/G1 subpopulation) (HL-60 cells; [2]): significant increase | S and G2/M subpopulations (HL-60 cells; vs PBS and untreated controls): decreased | DNA mobility shift ([1]; 0.5 and 0.25 mM): clear reduction in mobility | DNA mobility shift ([1]; 1 (unit uncertain), 30 min 37° C.): marked reduction of migration | DNA degradation ([1]; fragments smaller than free supercoiled DNA): did not result in DNA degradation | change of CD spectra of CT DNA (Calf Thymus DNA): increase the intensity of both the negative and the positive bands
